# Results taken from ChEMBL document CHEMBL1201862, “PubChem BioAssay data set” (2004).
#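 1) Cells in 96-well plates. 2) Compound, 48 h, 5 concentrations. 3) Linear interpolation between surrounding doses. 4) Unreached endpoint = highest concentration. Here, GI50 denotes the concentration required for 50% inhibition of growth.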 Activity calls are given as the source filed them. Rule as the data show it: active = GI50 up to about 1.1 µM and inactive = higher.
# Tests used:
# Assay in all cases: NCI tumour cell line growth inhibition, 48 h
# SK-MEL-5 = test system: SK-MEL-5
# UACC-257 = test system: UACC-257
# COLO 205 = test system: COLO 205
# SK-MEL-28 = test system: SK-MEL-28
# U-251 = test system: U-251
# MDA-MB-231 = test system: MDA-MB-231
# SW-620 = test system: SW-620
# SK-MEL-2 = test system: SK-MEL-2
# SR = test system: SR
# A549 = test system: A549
# OVCAR-5 = test system: OVCAR-5
# OVCAR-8 = test system: OVCAR-8
# HCT-116 = test system: HCT-116
# BT-549 = test system: BT-549
# NCI-H226 = test system: NCI-H226
# MDA-N = test system: MDA-N
# SN12C = test system: SN12C
# NCI-H460 = test system: NCI-H460
# TK-10 = test system: TK-10
# OVCAR-3 = test system: OVCAR-3
# HL-60 = test system: HL-60
# EKVX = test system: EKVX
# SF-539 = test system: SF-539
# LOX IMVI = test system: LOX IMVI
# RXF 393 = test system: RXF 393
# UACC-62 = test system: UACC-62
# NCI-H23 = test system: NCI-H23
# DU-145 = test system: DU-145
# HCC 2998 = test system: HCC 2998
# K562 = test system: K562
# HCT-15 = test system: HCT-15
# RPMI-8226 = test system: RPMI-8226
# PC-3 = test system: PC-3
# T47D = test system: T47D
# SNB-75 = test system: SNB-75
# UO-31 = test system: UO-31
# M14 = test system: M14
# ACHN = test system: ACHN
# CCRF-CEM = test system: CCRF-CEM
# HT-29 = test system: HT-29
# NCI-H522 = test system: NCI-H522
# HOP-62 = test system: HOP-62
# SK-OV-3 = test system: SK-OV-3
# SNB-19 = test system: SNB-19
# MCF7 = test system: MCF7
# SF-268 = test system: SF-268
# CAKI-1 = test system: CAKI-1
# 786-0 = test system: 786-0
# Malme-3M = test system: Malme-3M
# MDA-MB-435 = test system: MDA-MB-435
# SF-295 = test system: SF-295
# A498 = test system: A498
# IGROV-1 = test system: IGROV-1
# MOLT-4 = test system: MOLT-4
# OVCAR-4 = test system: OVCAR-4
# Hs-578T = test system: Hs-578T
# KM12 = test system: KM12
# HOP-92 = test system: HOP-92
# NCI/ADR-RES = test system: NCI/ADR-RES
smiles,measurement,setting,value
CN(C)CCNC(=O)c1cc([N+](=O)[O-])cn1C,GI50,SK-MEL-5,> 100 µM (inactive)
same,GI50,UACC-257,> 100 µM (inactive)
same,GI50,COLO 205,> 100 µM (inactive)
same,GI50,SK-MEL-28,> 100 µM (inactive)
same,GI50,U-251,> 100 µM (inactive)
same,GI50,MDA-MB-231,> 100 µM (inactive)
same,GI50,SW-620,> 100 µM (inactive)
same,GI50,SK-MEL-2,> 100 µM (inactive)
same,GI50,SR,> 100 µM (inactive)
same,GI50,A549,> 100 µM (inactive)
same,GI50,OVCAR-5,> 100 µM (inactive)
same,GI50,OVCAR-8,> 100 µM (inactive)
same,GI50,HCT-116,> 100 µM (inactive)
same,GI50,BT-549,> 100 µM (inactive)
same,GI50,NCI-H226,> 100 µM (inactive)
same,GI50,MDA-N,> 100 µM (inactive)
same,GI50,SN12C,> 100 µM (inactive)
same,GI50,NCI-H460,> 100 µM (inactive)
same,GI50,TK-10,> 100 µM (inactive)
same,GI50,OVCAR-3,> 100 µM (inactive)
same,GI50,HL-60,> 100 µM (inactive)
same,GI50,EKVX,> 100 µM (inactive)
same,GI50,SF-539,> 100 µM (inactive)
same,GI50,LOX IMVI,> 100 µM (inactive)
same,GI50,RXF 393,> 100 µM (inactive)
same,GI50,UACC-62,> 100 µM (inactive)
same,GI50,NCI-H23,> 100 µM (inactive)
same,GI50,DU-145,> 100 µM (inactive)
same,GI50,HCC 2998,> 100 µM (inactive)
same,GI50,K562,> 100 µM (inactive)
same,GI50,HCT-15,> 100 µM
same,GI50,RPMI-8226,> 100 µM (inactive)
same,GI50,PC-3,> 100 µM (inactive)
same,GI50,T47D,> 100 µM (inactive)
same,GI50,SNB-75,> 100 µM (inactive)
same,GI50,UO-31,> 100 µM (inactive)
same,GI50,M14,> 100 µM (inactive)
same,GI50,ACHN,> 100 µM (inactive)
same,GI50,CCRF-CEM,> 100 µM (inactive)
same,GI50,HT-29,> 100 µM (inactive)
same,GI50,NCI-H522,> 100 µM (inactive)
same,GI50,HOP-62,> 100 µM (inactive)
same,GI50,SK-OV-3,> 100 µM (inactive)
same,GI50,SNB-19,> 100 µM (inactive)
same,GI50,MCF7,> 100 µM (inactive)
same,GI50,SF-268,> 100 µM (inactive)
same,GI50,CAKI-1,> 100 µM (inactive)
same,GI50,786-0,> 100 µM (inactive)
same,GI50,Malme-3M,> 100 µM (inactive)
same,GI50,MDA-MB-435,> 100 µM (inactive)
same,GI50,SF-295,> 100 µM (inactive)
same,GI50,A498,> 100 µM (inactive)
same,GI50,IGROV-1,> 100 µM (inactive)
same,GI50,MOLT-4,> 100 µM (inactive)
same,GI50,OVCAR-4,> 100 µM (inactive)
same,GI50,Hs-578T,> 100 µM (inactive)
same,GI50,KM12,> 100 µM (inactive)
CC(C)c1ccc2c(c1)[C@@]1(C)CC[C@H](C)C(C)(C)C1CC2 (some centres undefined),GI50,SK-MEL-5,20.3 µM (inactive)
same,GI50,UACC-257,19.5 µM (inactive)
same,GI50,HOP-92,16.9 µM (inactive)
same,GI50,COLO 205,20.1 µM (inactive)
same,GI50,SK-MEL-28,17 µM (inactive)
same,GI50,MDA-MB-231,19.5 µM (inactive)
same,GI50,SW-620,47.8 µM (inactive)
same,GI50,SK-MEL-2,26.4 µM (inactive)
same,GI50,SR,27.5 µM (inactive)
same,GI50,A549,17.4 µM (inactive)
same,GI50,OVCAR-5,24.4 µM (inactive)
same,GI50,OVCAR-8,18.6 µM (inactive)
same,GI50,HCT-116,18.4 µM (inactive)
same,GI50,BT-549,20.6 µM (inactive)
same,GI50,NCI-H226,17.3 µM (inactive)
same,GI50,MDA-N,26.1 µM (inactive)
same,GI50,SN12C,17.7 µM (inactive)
same,GI50,NCI-H460,18.6 µM (inactive)
same,GI50,TK-10,17.6 µM (inactive)
same,GI50,NCI/ADR-RES,18.2 µM (inactive)
same,GI50,OVCAR-3,25.4 µM (inactive)
same,GI50,HL-60,34.4 µM (inactive)
same,GI50,EKVX,18.9 µM (inactive)
same,GI50,SF-539,23.4 µM (inactive)
same,GI50,LOX IMVI,17.6 µM (inactive)
same,GI50,RXF 393,17.5 µM (inactive)
same,GI50,UACC-62,16.2 µM (inactive)
same,GI50,NCI-H23,18.8 µM (inactive)
same,GI50,DU-145,25.7 µM (inactive)
same,GI50,HCC 2998,20.9 µM (inactive)
same,GI50,K562,32.2 µM (inactive)
same,GI50,HCT-15,18.1 µM
same,GI50,RPMI-8226,18.4 µM (inactive)
same,GI50,T47D,26.1 µM (inactive)
same,GI50,SNB-75,17.2 µM (inactive)
same,GI50,UO-31,37.9 µM (inactive)
same,GI50,M14,18.9 µM (inactive)
same,GI50,ACHN,18.6 µM (inactive)
same,GI50,CCRF-CEM,23.7 µM (inactive)
same,GI50,HT-29,16.3 µM (inactive)
same,GI50,NCI-H522,27.4 µM (inactive)
same,GI50,HOP-62,18.8 µM (inactive)
same,GI50,SK-OV-3,18.5 µM (inactive)
same,GI50,SNB-19,19.7 µM (inactive)
same,GI50,MCF7,17.2 µM (inactive)
same,GI50,SF-268,19.1 µM (inactive)
same,GI50,CAKI-1,23.9 µM (inactive)
same,GI50,786-0,18.1 µM (inactive)
same,GI50,Malme-3M,18.5 µM (inactive)
same,GI50,MDA-MB-435,16.9 µM (inactive)
same,GI50,SF-295,20.6 µM (inactive)
same,GI50,A498,17.7 µM (inactive)
same,GI50,IGROV-1,51.8 µM (inactive)
same,GI50,MOLT-4,37 µM (inactive)
same,GI50,OVCAR-4,15.9 µM (inactive)
same,GI50,Hs-578T,24 µM (inactive)
same,GI50,KM12,18 µM (inactive)
CCc1cccc(C(C)C)c1NC(=O)C(=O)Nn1c(S)nc2ccccc2c1=O,GI50,SK-MEL-5,> 100 µM (inactive)
same,GI50,UACC-257,> 100 µM (inactive)
same,GI50,HOP-92,> 100 µM (inactive)
same,GI50,SK-MEL-28,> 100 µM (inactive)
same,GI50,U-251,> 100 µM (inactive)
same,GI50,MDA-MB-231,76.2 µM (inactive)
same,GI50,SW-620,> 100 µM (inactive)
same,GI50,SK-MEL-2,> 100 µM (inactive)
same,GI50,SR,77.3 µM (inactive)
same,GI50,A549,> 100 µM (inactive)
same,GI50,OVCAR-5,> 100 µM (inactive)
same,GI50,OVCAR-8,> 100 µM (inactive)
same,GI50,HCT-116,> 100 µM (inactive)
same,GI50,BT-549,> 100 µM (inactive)
same,GI50,NCI-H226,> 100 µM (inactive)
same,GI50,MDA-N,> 100 µM (inactive)
same,GI50,SN12C,> 100 µM (inactive)
same,GI50,NCI-H460,> 100 µM (inactive)
same,GI50,TK-10,> 100 µM (inactive)
same,GI50,NCI/ADR-RES,47.8 µM (inactive)
same,GI50,OVCAR-3,> 100 µM (inactive)
same,GI50,EKVX,37.8 µM (inactive)
same,GI50,SF-539,> 100 µM (inactive)
same,GI50,LOX IMVI,> 100 µM (inactive)
same,GI50,RXF 393,> 100 µM (inactive)
same,GI50,UACC-62,> 100 µM (inactive)
same,GI50,NCI-H23,> 100 µM (inactive)
same,GI50,HCC 2998,> 100 µM (inactive)
same,GI50,K562,> 100 µM (inactive)
same,GI50,HCT-15,> 100 µM
same,GI50,RPMI-8226,> 100 µM (inactive)
same,GI50,PC-3,> 100 µM (inactive)
same,GI50,T47D,> 100 µM (inactive)
same,GI50,SNB-75,> 100 µM (inactive)
same,GI50,UO-31,> 100 µM (inactive)
same,GI50,M14,> 100 µM (inactive)
same,GI50,ACHN,> 100 µM (inactive)
same,GI50,CCRF-CEM,> 100 µM (inactive)
same,GI50,HT-29,> 100 µM (inactive)
same,GI50,NCI-H522,> 100 µM (inactive)
same,GI50,HOP-62,> 100 µM (inactive)
same,GI50,SK-OV-3,> 100 µM (inactive)
same,GI50,MCF7,> 100 µM (inactive)
same,GI50,SF-268,> 100 µM (inactive)
same,GI50,CAKI-1,> 100 µM (inactive)
same,GI50,786-0,> 100 µM (inactive)
same,GI50,Malme-3M,> 100 µM (inactive)
same,GI50,MDA-MB-435,> 100 µM (inactive)
same,GI50,SF-295,> 100 µM (inactive)
same,GI50,A498,> 100 µM (inactive)
same,GI50,IGROV-1,59.4 µM (inactive)
same,GI50,MOLT-4,> 100 µM (inactive)
same,GI50,OVCAR-4,> 100 µM (inactive)
same,GI50,Hs-578T,> 100 µM (inactive)
same,GI50,KM12,> 100 µM (inactive)
